From patent publication US12070505B2, “Targeted peptide-drug conjugates” (priority 2021, dated 2024)
Read-outs that look alike come from different tables or passages of the source.

Columns and labels:
[1] = Cytotoxicity, MTS assay, normal heart muscle cells (Example 1); details: rat, H9C2 heart/myocardium cells
Description: (§4) In Vitro Cytotoxicity Assay of Peptide-Drug Conjugates. The cytotoxicity of the compounds was determined by using human leukemia cell line (CCRF-CEM), human ovarian adenocarcinoma cells (SKOV-3) cells, kidney cell line (LLC-PK1), gastric adenocarcinoma cells (AGS), and heart/myocardium cells (H9C2) to evaluate the toxicity of the generated peptides according to a previously reported procedure (Rahman, A.; et al. Proc. Am. Assoc. Cancer Res. 26:2295-2299, 1985, which is incorporated herein by reference). In brief, CCRF-CEM cells were seeded at 50,000 cells in 0.1 mL per well in 98-well plates. In the case of other cell lines, the cells were seeded at 5,000 cells (0.1 mL per well in 96-well plates). The cells were seeded in medium (RPMI-1640 containing FBS (10%)), 24 h prior to the experiment. The compounds at different concentrations (10-50 μM) were added to each well in triplicate and incubated for 24 and 72 h at 37° C. in a humidified atmosphere of 5% CO2. Dox (5 μM) was used as a positive control, while water and cell culture medium were used as negative controls. The compounds were dissolved in water; water was used as a negative control to normalize the data. After the incubation period, MTS reagent (20 μL) was added to each well. The incubation was continued for 2 h. Cell viability was then determined by determination of the fluorescence intensity at 490 nm using a SpectraMax M2 microplate spectrophotometer.

H9C2 cells = assay: as above
Description: as §4

MDA-231WT cells = assay: LC50 by CCK-8 assay, wild-type cells; type: cell-based; details: MDA-231WT (wild type), FIG. 10: after 72 h
Description: (§1) Dox-resistant Cell Lines. Acquired resistance to Dox was induced in wild-type triple-negative breast cancer cell line MDA-MB-231 (MDA-231WT) as described before (Aliabadi, H. M.; et al. J. Control. Release 172:219-228, 2013, which is incorporated herein by reference). Briefly, MDA-231WT cells were exposed to Dox at an initial concentration of 0.05 μg/mL for one week or three consecutive expansions (whichever came later). […] Resistance induction was confirmed via calculation of LC50 following a sigmoidal effect model explained elsewhere (Bousoik, E.; et al. Front. Oncol. 9:1070, 2019, which is incorporated herein by reference) and determination of P-glycoprotein (P-gp) expression.
(§2) The cytotoxicity of the peptide-Dox conjugate in resistant triple-negative breast cancer and uterine sarcoma cell lines (MDA-231R, MDA-231WT, and MES-SA/MX2) was evaluated by a Cell Counting 8 (CCK8) KIT. The peptide-Dox conjugate was added to the cells in triplicate with different concentrations (0-40 μM). Cells were incubated at 37° C. and 5% CO2 for 24 h. After this incubation period, 10 μL of CCK8 reagent was added to each well, and plates were incubated at the same conditions for 2 h. The absorbance of each well was determined at 450 nm using the SpectraMAX M5 microplate reader. After subtracting the signal from blank wells that contain medium without cells in the plate with CCK-8 solution added, the results were normalized to cells treated with normal saline (considered as 100%)
(§3) Efficiency in Dox-Resistant Cells. In order to compare the cytotoxic effect of free and peptide-conjugated Dox in Dox-resistant cells, MDA-231WT (as a Dox-sensitive cell line as control) and MDA-231R and MES-SA/MX2 cells as Dox-resistant cells were exposed to a wide range of Dox (or Dox-equivalent for the peptide-conjugated drug) concentrations (0.05-40 μM). Cells were seeded in 96-well plates with approximately 50% confluency and were incubated for 24 h in 37° C. and 5% CO2. […] The cell viability was determined after this incubation period using the CCK-8 assay, as explained above. […]

[2] = Stability of [R5K]W7A-Dox in fetal bovine serum (HPLC); type: in vitro ADME; details: 10% FBS, 37° C.
Description: Stability Studies. The stability of [R5K]W7A-Dox conjugate was evaluated using phosphate-buffered saline (PBS) and fetal bovine serum (FBS). FBS was purchased from Invitrogen and ATCC. FBS (20%) was incubated with [R5K]W7A-Dox (75 μL, 1 mM in water) at 37° C. followed by intermediate mixing. An aliquot of 75 μL of the mixture was taken out at different time intervals (5 min to 24 h) and diluted with water (75 μL). The mixture was analyzed by using analytical HPLC, detecting the wavelength of 490 nm. The area under the curve (AUC) was calculated and used to determine the percentage of released Dox and the remaining prodrug at a given time.

MES-SA/MX2 cells = assay: LC50 by CCK-8 assay, Dox-resistant MES-SA/MX2; type: cell-based; details: FIG. 10: after 72 h
Description: as §1
The cytotoxicity of the peptide-Dox conjugate in resistant triple-negative breast cancer and uterine sarcoma cell lines (MDA-231R, MDA-231WT, and MES-SA/MX2) was evaluated by a Cell Counting 8 (CCK8) KIT. The peptide-Dox conjugate was added to the cells in triplicate with different concentrations (0-40 μM). […] After this incubation period, 10 μL of CCK8 reagent was added to each well, and plates were incubated at the same conditions for 2 h. The absorbance of each well was determined at 450 nm using the SpectraMAX M5 microplate reader. […]
Efficiency in Dox-Resistant Cells. […] The cell viability was determined after this incubation period using the CCK-8 assay, as explained above. […]

CCRF-CEM cells = assay: Cytotoxicity, MTS cell viability assay, CCRF-CEM
Description: (§5) In Vitro Cytotoxicity Assay of Peptide-Drug Conjugates. […] In brief, CCRF-CEM cells were seeded at 50,000 cells in 0.1 mL per well in 98-well plates. In the case of other cell lines, the cells were seeded at 5,000 cells (0.1 mL per well in 96-well plates). […] Dox (5 μM) was used as a positive control, while water and cell culture medium were used as negative controls. The compounds were dissolved in water; water was used as a negative control to normalize the data. After the incubation period, MTS reagent (20 μL) was added to each well. The incubation was continued for 2 h. Cell viability was then determined by determination of the fluorescence intensity at 490 nm using a SpectraMax M2 microplate spectrophotometer. The percentage of cell viability was then calculated using the following equation: [(OD value of cells treated with the compound)−(OD value of culture medium)]/[(OD value of control cells)−(OD value of culture medium)]×100% (FIGS. 6-9).

SK-OV-3 cells = assay: Cytotoxicity, MTS cell viability assay, SK-OV-3 (Example 1)
Description: as §5

MDA-231R cells = assay: LC50 by CCK-8 assay, Dox-resistant MDA-231R; type: cell-based; details: MDA-231R (Dox-resistant); FIG. 10: after 72 h
Description: as §1, §2, §3

[3] = system: uterine sarcoma cells (MES-SA/MX2)
Description: as §5

[4] = system: gastric adenocarcinoma cells (AGS); assay: Cytotoxicity, MTS cell viability assay, AGS
Description: as §5

LLC-PK1 kidney cells = assay: Cytotoxicity, MTS assay, normal kidney cells
Description: as §4

[5] = Cytotoxicity, MTS assay, normal kidney cells; details: pig, LLC-PK1 kidney cells
Description: as §4

SMILES: COc1cccc2c1C(=O)c1c(O)c3c(c(O)c1C2=O)C[C@@](O)(C(=O)COC(=O)CCCC(=O)NCCC(=O)N[C@@H](Cc1c[nH]c2ccccc12)C(=O)N[C@@H](Cc1c[nH]c2ccccc12)C(=O)N[C@@H](Cc1c[nH]c2ccccc12)C(=O)N[C@@H](Cc1c[nH]c2ccccc12)C(=O)N[C@@H](Cc1c[nH]c2ccccc12)C(=O)N[C@@H](Cc1c[nH]c2ccccc12)C(=O)N[C@@H](Cc1c[nH]c2ccccc12)C(=O)NCCCC[C@@H]1NC(=O)[C@H](CCCNC(=N)N)NC(=O)[C@H](CCCNC(=N)N)NC(=O)[C@H](CCCNC(=N)N)NC(=O)[C@H](CCCNC(=N)N)NC(=O)[C@H](CCCNC(=N)N)NC1=O)C[C@@H]3O[C@H]1C[C@H](N)[C@H](O)[C@H](C)O1 [[R5K]W7A-Dox]
- viability at 24 h, 5 µM [1]: 100 ± 2%
- viability at 24 h, 10 µM [1]: 101%
- viability at 24 h, 25 µM [1]: 68%
- viability at 72 h, 10 µM [1]: 105 ± 3%
- viability at 72 h, 25 µM [1]: 37 ± 1%
- viability at 96 h, 5 µM [1]: 115 ± 1%
- viability at 96 h, 10 µM [1]: 91%
- viability at 96 h, 25 µM [1]: 39%
- cytotoxicity to heart cells (H9C2 cells; H9C2, 5-10 μM): < 9%
- toxicity (H9C2 cells; H9C2, 5-10 μM, 24 h, 72 h, and 96 h): did not show any significant toxicity
- Cell Viability (%) after 24 h (H9C2 cells; normal heart H9C2, 5 μM): 100 ± 2%
- Cell Viability (%) after 24 h (H9C2 cells; normal heart H9C2, 10 μM): 101 ± 0%
- Cell Viability (%) after 72 h (H9C2 cells; normal heart H9C2, 10 μM): 105 ± 3%
- CC50 (MDA-231WT cells): 560 nM
- CC50 (MDA-231WT cells; listed as Conjugated Dox): 660 nM
- Dox released ([2]; after 4 h): 55%
- remaining at 24 h ([2]; bovine, 10% fetal bovine serum, after 24 h, read-out: peptide-Dox conjugate remained intact): 25%
- CC50 (MES-SA/MX2 cells): 4300 nM
- Cell Viability (%) after 24 h (CCRF-CEM cells; 5 μM): 74 ± 0%
- Cell Viability (%) after 72 h (CCRF-CEM cells; 5 μM): 16 ± 6%
- reduction of cell survival/viability (CCRF-CEM cells; 5 μM, 72 h): 84%
- Cell Viability (%) after 24 h (CCRF-CEM cells; 10 μM): 68 ± 0%
- Cell Viability (%) after 72 h (CCRF-CEM cells; 10 μM): 13 ± 3%
- Cell Viability (%) after 24 h (CCRF-CEM cells; 25 μM): 36 ± 0%
- Cell Viability (%) after 72 h (CCRF-CEM cells; 25 μM): 15 ± 1%
- reduction of cell viability (CCRF-CEM cells; 25 μM, 24 h): 64%
- cytotoxicity (CCRF-CEM cells; at 5, 10, and 25 μM, 72 h): 84-87%
- Cell Viability (%) after 24 h (SK-OV-3 cells; 5 μM): 87 ± 6%
- Cell Viability (%) after 72 h (SK-OV-3 cells; 5 μM): 71 ± 3%
- reduction of cell survival/viability (SK-OV-3 cells; 5 μM, 24 h): 19%
- reduction of cell survival/viability (SK-OV-3 cells; 5 μM, 72 h): 29%
- Cell Viability (%) after 24 h (SK-OV-3 cells; 10 μM): 87 ± 0%
- Cell Viability (%) after 72 h (SK-OV-3 cells; 10 μM): 61 ± 6%
- reduction of cell viability (SK-OV-3 cells; 10 μM, 72 h): 39%
- Cell Viability (%) after 24 h (SK-OV-3 cells; 25 μM): 76 ± 1%
- Cell Viability (%) after 72 h (SK-OV-3 cells; 25 μM): 52 ± 3%
- reduction of cell viability / cytotoxicity (SK-OV-3 cells; 25 μM, 72 h): 48%
- CC50 (MDA-231R cells): 2300 nM
- Cell Viability (%) after 72 h ([3]; 5 μM, listed as [R5K]W7-Dox): 97 ± 2%
- Cell Viability (%) after 72 h ([3]; 5 μM, listed as [R5K]W7Dox): 113 ± 1%
- Cell Viability (%) after 72 h ([3]; 10 μM): 89 ± 2%
- Cell Viability (%) after 72 h ([3]; 25 μM): 23 ± 4%
- reduction of cell viability ([3]; 25 μM, 72 h): ~80%
- cytotoxicity ([3]; 5 and 10 μM, 72 h): 0-10%
- Cell Viability (%) after 24 h ([4]; 5 μM): 95 ± 0%
- Cell Viability (%) after 72 h ([4]; 5 μM): 27 ± 6%
- reduction of cell survival/viability ([4]; 5 μM, 72 h): 73%
- Cell Viability (%) after 24 h ([4]; 10 μM): 104 ± 5%
- Cell Viability (%) after 72 h ([4]; 10 μM): 13 ± 3%
- Cell Viability (%) after 24 h ([4]; 25 μM): 71 ± 0%
- Cell Viability (%) after 72 h ([4]; 25 μM): 10 ± 1%
- Cell Viability (%) after 24 h ([4]; 50 μM): 32 ± 1%
- Cell Viability (%) after 72 h ([4]; 50 μM): 11 ± 1%
- cytotoxicity ([4]; 5 and 10 μM, 24 h): not significantly cytotoxic
- reduction of cell viability ([4]; different concentrations, 72 h): 73-90%
- cytotoxicity to normal kidney cells (LLC-PK1 kidney cells; LLC-PK1, 5-10 μM): 5-7%
- cytotoxicity (LLC-PK1 kidney cells; LLC-PK1, as high as 10 μM, 24 h and 72 h): not cytotoxic
- Cell Viability (%) after 24 h (LLC-PK1 kidney cells; normal kidney LLC-PK1, 5 μM): 88 ± 0%
- Cell Viability (%) after 72 h (LLC-PK1 kidney cells; normal kidney LLC-PK1, 5 μM): 93 ± 6%
- Cell Viability (%) after 72 h (LLC-PK1 kidney cells; normal kidney LLC-PK1, 10 μM): 95 ± 3%
- viability at 24 h, 5 µM [5]: 88%
- viability at 24 h, 25 µM [5]: 42%
- viability at 24 h, 50 µM [5]: 33 ± 1%
- viability at 72 h, 5 µM [5]: 93 ± 6%
- viability at 72 h, 10 µM [5]: 95 ± 3%
- viability at 72 h, 25 µM [5]: 94 ± 1%
- viability at 72 h, 50 µM [5]: 33 ± 1%
